Test results reported in PMC7979765, “trans-Translation inhibitors bind to a novel site on the ribosome and clear Neisseria gonorrhoeae in vivo” (Nature Communications, 2021).
Several values for one entry are separate records, joined by “and”; a condition that tells them apart may be missing. Equal entries are not always repeated. Where two headings read alike, the source gives them in different places.

Legend:
[1] = Multiplexed cytotoxicity assay (nuclei, ROS, TMRE); assay type: cell-based, human; details: human, human primary hepatocytes; for fold induction at 24 h, 1 μM: 1.00E+00 μM; for fold induction at 24 h, 10 μM: 1.00E+01 μM; for fold induction at 24 h, 100 μM: 1.00E+02 μM; for fold induction at 24 h, 0.1 μM: 1.00E-01 μM; for fold induction at 24 h, 0.0101 μM: 1.01E-02 μM; for fold induction at 24 h, 31.6 μM: 3.16E+01 μM; for fold induction at 24 h, 3.17 μM: 3.17E+00 μM; for fold induction at 24 h, 0.317 μM: 3.17E-01 μM; for fold induction at 24 h, 0.0318 μM: 3.18E-02 μM; for fold induction at 24 h, 0.00318 μM: 3.18E-03 μM
Procedure: (§1) Multiplexed cytotoxicity assay — Human primary hepatocytes were grown on collagen I coated optical plates, cultured in hepatocytes culture media in a humidified 5% CO2 atmosphere at 37 °C. Cells were incubated in the presence of MBX-4132 at 10 concentrations starting a 100 µM and serially diluted 3.16-fold for 24 h at 37 °C, incubated for 30 min with multiplexed fluorescent dyes (Hoescht, 6-carboxy-2’,7’-dichlorodihydrofluorescein diazetat, and TMRE) and imaged to allow visualization of nuclei, reactive oxygen species generation, and mitochondrial oxidation. A >3.5-fold induction of ROS was considered consistent with formation of ROS and a >2-fold change in TMRE signal indicated an increase or decrease in mitochondrial membrane potential.

[2] = tested on: Human primary hepatocytes; test: Multiplexed cytotoxicity assay (nuclei, ROS, TMRE); assay type: cell-based
Procedure: as §1

[3] = tested on: mitochondrial membrane potential (MMP, TMRE signal); test: Multiplexed cytotoxicity assay (nuclei, ROS, TMRE); assay type: cell-based, human; details: human, primary hepatocytes, 24 h, read-out: MMP inhibition (fold induction)
Procedure: as §1

[4] = tested on: reactive oxygen species (ROS) generation; test: Multiplexed cytotoxicity assay (nuclei, ROS, TMRE); assay type: cell-based, human; details: human, primary hepatocytes, 24 h
Procedure: as §1

[5] = target: T1, CYP2D6 (Homo sapiens, UniProt P10635); test: Cyp inhibition assay 4875; assay type: in vitro ADME; details: catalog reference 4875, read-out: pIC50 (µM) reported (converted)
T1 construct: Eurofins Discovery Services (contract assay) 4875
T1 sequence (P10635 whole entry): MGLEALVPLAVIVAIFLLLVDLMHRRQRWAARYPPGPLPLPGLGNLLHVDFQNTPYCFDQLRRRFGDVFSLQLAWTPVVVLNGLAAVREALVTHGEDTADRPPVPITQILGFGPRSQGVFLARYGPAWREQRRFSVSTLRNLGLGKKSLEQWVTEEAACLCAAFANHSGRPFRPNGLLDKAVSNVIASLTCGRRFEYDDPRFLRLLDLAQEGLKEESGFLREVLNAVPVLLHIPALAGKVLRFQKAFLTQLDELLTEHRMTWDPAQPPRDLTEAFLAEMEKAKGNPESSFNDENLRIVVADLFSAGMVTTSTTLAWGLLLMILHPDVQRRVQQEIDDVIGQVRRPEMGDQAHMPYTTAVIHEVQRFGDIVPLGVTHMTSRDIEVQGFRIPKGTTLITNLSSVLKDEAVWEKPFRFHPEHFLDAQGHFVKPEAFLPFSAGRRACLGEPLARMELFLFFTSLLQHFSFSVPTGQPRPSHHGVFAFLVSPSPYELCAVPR
Procedure: (§2) Several in vitro selectivity assays were performed at Eurofins Discovery Services using established methods and controls that behaved as expected (Supplementary Tables 5 and 6). […] For receptor panel profiling, MBX-4132 was evaluated at 10 μM and activity of >50% (agonist or antagonist; note that negative % inhibition indicates agonism) was scored as active.

[6] = target: T2, Phosphodiesterase PDE3A (Homo sapiens, UniProt Q14432); test: Receptor Profiling 152300; assay type: biochemical
T2 construct: Eurofins Discovery Services (contract assay) 152300
T2 sequence (Q14432 whole entry): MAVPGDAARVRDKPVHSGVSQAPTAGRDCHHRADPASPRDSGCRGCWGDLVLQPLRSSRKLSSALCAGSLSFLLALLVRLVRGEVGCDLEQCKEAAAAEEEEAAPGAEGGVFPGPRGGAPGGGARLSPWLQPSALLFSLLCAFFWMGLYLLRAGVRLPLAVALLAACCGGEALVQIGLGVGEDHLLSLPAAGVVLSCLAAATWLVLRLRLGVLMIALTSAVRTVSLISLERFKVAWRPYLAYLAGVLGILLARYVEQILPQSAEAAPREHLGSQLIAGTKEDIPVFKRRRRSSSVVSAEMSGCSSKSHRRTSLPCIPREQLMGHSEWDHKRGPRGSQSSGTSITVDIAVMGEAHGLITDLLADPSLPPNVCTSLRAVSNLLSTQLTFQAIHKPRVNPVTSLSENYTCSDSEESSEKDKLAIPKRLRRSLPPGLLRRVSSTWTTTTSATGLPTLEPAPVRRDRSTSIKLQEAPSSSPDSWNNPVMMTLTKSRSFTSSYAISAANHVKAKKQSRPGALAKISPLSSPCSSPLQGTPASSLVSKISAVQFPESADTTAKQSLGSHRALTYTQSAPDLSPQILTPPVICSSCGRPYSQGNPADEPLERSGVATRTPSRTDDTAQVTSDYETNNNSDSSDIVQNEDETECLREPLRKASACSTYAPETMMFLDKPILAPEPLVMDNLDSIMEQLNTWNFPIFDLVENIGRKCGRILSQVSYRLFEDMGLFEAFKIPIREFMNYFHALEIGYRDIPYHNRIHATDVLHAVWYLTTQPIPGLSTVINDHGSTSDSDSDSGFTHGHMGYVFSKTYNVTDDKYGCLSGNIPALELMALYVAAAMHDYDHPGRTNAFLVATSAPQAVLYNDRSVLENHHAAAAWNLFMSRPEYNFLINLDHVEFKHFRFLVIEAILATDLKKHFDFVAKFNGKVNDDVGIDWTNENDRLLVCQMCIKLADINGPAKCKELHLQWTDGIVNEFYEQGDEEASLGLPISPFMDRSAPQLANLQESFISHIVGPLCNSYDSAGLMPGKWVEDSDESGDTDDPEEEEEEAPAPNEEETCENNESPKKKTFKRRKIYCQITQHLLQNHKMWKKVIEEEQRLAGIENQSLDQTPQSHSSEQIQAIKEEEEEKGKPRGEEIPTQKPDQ
Procedure: as §2

[7] = target: T3, Adrenergic β1 (Homo sapiens, UniProt P08588); test: Receptor Profiling 204010; assay type: binding
T3 construct: purchased Eurofins Discovery Services (Panlabs safety panel)
T3 sequence (P08588 whole entry): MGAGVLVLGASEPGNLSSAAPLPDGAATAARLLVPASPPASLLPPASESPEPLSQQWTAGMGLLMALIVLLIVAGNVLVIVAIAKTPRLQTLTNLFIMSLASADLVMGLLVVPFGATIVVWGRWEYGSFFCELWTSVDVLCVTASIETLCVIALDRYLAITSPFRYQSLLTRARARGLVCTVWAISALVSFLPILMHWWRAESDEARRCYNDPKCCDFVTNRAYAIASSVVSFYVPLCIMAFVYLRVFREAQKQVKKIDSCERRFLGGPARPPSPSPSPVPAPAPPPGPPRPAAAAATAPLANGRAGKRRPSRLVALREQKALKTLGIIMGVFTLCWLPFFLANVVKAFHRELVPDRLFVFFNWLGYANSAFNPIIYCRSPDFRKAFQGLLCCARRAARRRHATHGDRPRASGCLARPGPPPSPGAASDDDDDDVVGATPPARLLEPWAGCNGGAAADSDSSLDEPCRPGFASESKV
Procedure: as §2

[8] = target: T4, Serotonin (5-hydroxytryptamine) 5-HT3 (Homo sapiens, UniProt P46098); test: Receptor Profiling 271910; assay type: binding
T4 construct: Eurofins Discovery Services (contract assay) 271910
T4 sequence (P46098 24-478): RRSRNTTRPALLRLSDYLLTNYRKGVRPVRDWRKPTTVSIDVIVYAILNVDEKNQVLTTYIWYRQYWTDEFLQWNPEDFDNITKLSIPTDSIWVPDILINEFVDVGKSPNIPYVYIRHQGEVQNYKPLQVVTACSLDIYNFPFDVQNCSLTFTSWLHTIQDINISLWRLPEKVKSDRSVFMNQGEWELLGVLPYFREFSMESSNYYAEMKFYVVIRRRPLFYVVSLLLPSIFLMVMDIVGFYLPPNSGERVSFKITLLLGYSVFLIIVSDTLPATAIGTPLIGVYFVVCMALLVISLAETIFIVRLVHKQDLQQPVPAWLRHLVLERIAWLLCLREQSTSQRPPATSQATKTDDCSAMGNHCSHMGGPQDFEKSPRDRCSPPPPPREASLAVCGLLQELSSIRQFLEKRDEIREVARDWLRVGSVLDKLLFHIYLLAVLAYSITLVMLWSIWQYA
Procedure: as §2

[9] = mouse
[10] = read-out: Mean MMP inhibition (fold induction)
[11] = read-out: Mean ROS (fold induction)

## O=C(Nc1nnc(-c2ccc(F)cc2)o1)N1CCc2ccccc2C1 [MBX-4132]
[1]; [10]
  fold induction at 24 h, 1 μM: 0.9
  fold induction at 24 h, 10 μM: 1.1
  fold induction at 24 h, 100 μM: 0.8
  fold induction at 24 h, 0.1 μM: 1.2
  fold induction at 24 h, 0.0101 μM: 1
  fold induction at 24 h, 31.6 μM: 1.1
  fold induction at 24 h, 3.17 μM: 1
  fold induction at 24 h, 0.317 μM: 0.9
  fold induction at 24 h, 0.0318 μM: 0.9
  fold induction at 24 h, 0.00318 μM: 1
[1]; [11]
  fold induction at 24 h, 1 μM: 1.2
  fold induction at 24 h, 10 μM: 1.9
  fold induction at 24 h, 100 μM: 9.2
  fold induction at 24 h, 0.1 μM: 1.4
  fold induction at 24 h, 0.0101 μM: 1.4
  fold induction at 24 h, 31.6 μM: 1.3
  fold induction at 24 h, 3.17 μM: 1.1
  fold induction at 24 h, 0.317 μM: 1.2
  fold induction at 24 h, 0.0318 μM: 0.9
  fold induction at 24 h, 0.00318 μM: 3.1
[2]; 1.00E+00 μM, 24 h
  Attached live cells (%): 106.3%
[2]; 1.00E+00 μM, replicates
  Attached live cells (%): 108.6% and 104.0%
[2]; 1.00E+01 μM, 24 h
  Attached live cells (%): 97.7%
[2]; 1.00E+01 μM, replicates
  Attached live cells (%): 104.3% and 91.1%
[2]; 1.00E+02 μM, 24 h
  Attached live cells (%): 69.6%
[2]; 1.00E+02 μM, replicates
  Attached live cells (%): 78.3% and 60.9%
[2]; 1.00E-01 μM, 24 h
  Attached live cells (%): 96.7%
[2]; 1.00E-01 μM, replicates
  Attached live cells (%): 101.6% and 91.8%
[2]; 1.01E-02 μM, 24 h
  Attached live cells (%): 109.5%
[2]; 1.01E-02 μM, replicates
  Attached live cells (%): 115.4% and 103.6%
[2]; 3.16E+01 μM, 24 h
  Attached live cells (%): 89.5%
[2]; 3.16E+01 μM, replicates
  Attached live cells (%): 92.0% and 87.0%
[2]; 3.17E+00 μM, 24 h
  Attached live cells (%): 99.6%
[2]; 3.17E+00 μM, replicates
  Attached live cells (%): 103.9% and 95.3%
[2]; 3.17E-01 μM, 24 h
  Attached live cells (%): 114.0%
[2]; 3.17E-01 μM, replicates
  Attached live cells (%): 124.2% and 103.8%
[2]; 3.18E-02 μM, 24 h
  Attached live cells (%): 97.5%
[2]; 3.18E-02 μM, replicates
  Attached live cells (%): 106.1% and 88.9%
[2]; 3.18E-03 μM, 24 h
  Attached live cells (%): 105.6%
[2]; 3.18E-03 μM, replicates
  Attached live cells (%): 110.9% and 100.3%
[2]; high concentrations, human hepatocytes
  effect on mitochondrial membrane polarity (in words): no effect
[3]; 1.00E+00 μM
  fold induction at 24 h, 1 μM: 0.9
[3]; 1.00E+01 μM
  fold induction at 24 h, 10 μM: 1.1
[3]; 1.00E-01 μM
  fold induction at 24 h, 0.1 μM: 1.2
[3]; 1.01E-02 μM
  fold induction at 24 h, 0.0101 μM: 1
[3]; 3.16E+01 μM
  fold induction at 24 h, 31.6 μM: 1.1
[3]; 3.17E+00 μM
  fold induction at 24 h, 3.17 μM: 1
[3]; 3.17E-01 μM
  fold induction at 24 h, 0.317 μM: 0.9
[3]; 3.18E-02 μM
  fold induction at 24 h, 0.0318 μM: 0.9
[3]; 3.18E-03 μM
  fold induction at 24 h, 0.00318 μM: 1
[4]; 1.00E+00 μM
  fold induction at 24 h, 1 μM: 1.2
[4]; 1.00E-01 μM
  fold induction at 24 h, 0.1 μM: 1.4
[4]; 1.01E-02 μM
  fold induction at 24 h, 0.0101 μM: 1.4
[4]; 3.17E+00 μM
  fold induction at 24 h, 3.17 μM: 1.1
[4]; 3.17E-01 μM
  fold induction at 24 h, 0.317 μM: 1.2
[4]; 3.18E-02 μM
  fold induction at 24 h, 0.0318 μM: 0.9
[5]
  IC50: > 100 µM
[6]
  inhibition at 10 µM: -6%
[7]
  inhibition at 10 µM: -8%
[8]
  inhibition at 10 µM: 4%
[9]
  Murine serum stability (% remaining after 1 hr): 101%
